Where two headings read alike, the source gives them in different places. Marks after values point to notes of the source that are not given here.
Key:
[1] = tested on: PCG/RSC of adult female Sprague Dawley rats; conditions: 3 hours after a single intraperitoneal injection (Jevtovic-Todorovic 2000); cited from earlier work
[2] = for QC sample long-term storage stability: human plasma QC sample at −20° C.; for QC sample bench-top stability: human plasma QC sample; for QC sample bench-top stability / Processed sample stability: room temperature; for Stock solution stability (spike solutions): ketamine/norketamine spike solutions at −20° C.; for Whole Blood Stability: room temperature and in an ice-water bath (0-4° C.)
Procedure: This example provides an LC-MS/MS method for the determination of ketamine and norketamine in sodium heparin human plasma using ketamine-d4 and norketamine-d4 as the respective internal standards (IS).
Retention time and peak area were determined by Analyst® Data Acquisition/Processing Software (Version 1.4.2). Analyte concentrations were obtained from a calibration curve constructed by plotting the peak area ratio versus the concentration using Watson LIMS (Version 7.3). Watson LIMS and Microsoft Office Excel were used for statistical calculations. When Office Excel was used the calculations were 100% audited. Concentrations were calculated using linear regression according to the following equation: […]
Selectivity is defined as the ability of a chromatographic method to measure a response from the analyte without interference from the biological matrix. This was accomplished by evaluating six individual lots of human plasma prepared as blank and at the lower limit of quantitation (LLOQ, 0.500 ng/mL).
The matrix effect is defined as the suppression or enhancement of ionization of analytes by the presence of matrix components in the biological samples. See, e.g., C. T. Viswanathan, “Quantitative Bioanalytical Methods Validation and Implementation: Best Practices for Chromatographic and Ligand Binding Assays,” Pharmaceutical Research, Vol. 24, No. 10, October 2007, p. 1969. The matrix effect was evaluated by extracting single replicates of six lots of blank human plasma and spiking each lot at the Low and High QC concentration levels (1.50 ng/mL and 375 ng/mL) post extraction. The area ratios of the six lots of post-extraction spiked plasma samples were compared to the mean area ratio obtained from three replicates of the neat solution prepared at the same concentration level in purified water.
The linearity of the method was evaluated at a linear range of 0.500/0.500-500/500 ng/mL for ketamine/norketamine in human plasma. Linear regression (with a weighting factor of 1/x2) was used to produce the best fit for the concentration-detector response relationship for ketamine and norketamine in human plasma.
The validation was conducted with a target LLOQ of 0.500 ng/mL for ketamine and norketamine in human plasma. To evaluate the sensitivity, six QC samples prepared at the LLOQ were analyzed during three individual batch runs as part of the intra-run and inter-run accuracy and precision for the method. The concentrations were calculated with the calibration curve.
The intra-run and inter-run accuracy and precision of the method were investigated at four different QC concentration levels (0.500 ng/mL (LLOQ), 1.50 ng/mL, 80.0 ng/mL, and 375 ng/mL).
Recoveries were calculated according to the following formula: […]
To assess the reinjection reproducibility, an analyte batch containing a standard curve and QC samples was reinjected after being kept at room temperature for 161.5 hours.

[3] = tested on: subjects with MDD at imminent risk for suicide; conditions: double-blind phase; all randomized analysis set; N=36
Description: Among 68 randomized subjects, 66 were included in the safety analysis set (defined as receiving at least one dose of study medication in the double-blind phase). […] All safety subjects (N=66) were included in the intent-to-treat (ITT) analysis set (defined as receiving at least one dose of study medication during the double-blind phase and having both the baseline and the Day 1, 4-hour postdose evaluation for the MADRS total score). Forty-nine subjects were included in the safety (FU) analysis set (defined as all subjects who have at least 1 visit during the follow up phase).

[4] = Pharmacokinetics of intranasal esketamine 28, 56, 84 mg in healthy subjects (Example 9); conditions: for AUClast / AUC∞ / Cmax / t1/2 / Metabolite/Parent Ratio AUClast / Metabolite/Parent Ratio AUC∞ / Metabolite/Parent Ratio Cmax: mean; for Tmax: median; for Metabolite/Parent Ratio AUClast / Metabolite/Parent Ratio AUC∞ / Metabolite/Parent Ratio Cmax: noresketamine to esketamine
Procedure: This was an open-label, single-center study. The subjects were healthy Caucasian men and women, 20 to 55 years of age, inclusive. […] The solution consisted of:
Pharmacokinetic blood samples for measurement of esketamine and noresketamine concentrations in plasma were collected from predose until up to 24 hours after each intranasal esketamine regimen on Day 1 of each period.
Blood samples (4 mL each) for determination of esketamine and noresketamine plasma concentrations were collected into the appropriate collection tube (e.g., Vacutainer®) at timepoints 0.00, 0.12, 0.20, 0.37, 0.53, 0.67, 0.83, 1.00, 1.25, 1.50, 2.00, 3.00, 4.00, 6.00, 9.00, 12.00, 18.00, and 24.00 h. The total amount of blood to be drawn for clinical laboratory tests and PK evaluations is approximately 327 mL.
Plasma samples were analyzed for esketamine and noresketamine concentrations using the validated, specific and sensitive liquid chromatography coupled to tandem mass spectrometry (LC-MS/MS) achiral method of Example 8.
Serial PK blood samples (4 mL each) were collected for a 24-hour period from each subject (Periods 1, 2, and 3).
The following key parameters of esketamine and noresketamine in plasma were calculated using noncompartmental methods and actual sampling times: Cmax, tmax, AUClast, AUC∞, t1/2,λ, and λz.

[5] = tested on: MDD/TRD subjects; conditions: 52-week safety study in MDD/TRD subjects (Berman et al., 2011); cited from earlier work
[6] = freeze (−20° C.)/thaw (ice-water bath)
[7] = freeze (−20° C.)/thaw (room temperature)
[8] = stock solutions at room temperature under white light
[9] = noresketamine in plasma after intranasal esketamine 28 mg (Treatment A)
[10] = noresketamine in plasma after intranasal esketamine 56 mg (Treatment B)
[11] = noresketamine in plasma after intranasal esketamine 84 mg (Treatment C)

Question: Which “ED50-value for the induction of neuronal vacuolation in the PCG/RSC” value [1] does the source give for `CNC1(c2ccccc2Cl)CCCCC1=O` (racemic) [ketamine, reference compound] here?
Answer: 47.5 mg/kg body weight

Question: What about the “QC sample freeze/thaw stability” value [2, 6] of the same compound?
Answer: 3 freeze (−20° C.)/thaw (ice-water bath) cycles

Question: What about the “QC sample freeze/thaw stability” value [2, 7] of the same compound?
Answer: 3 freeze (−20° C.)/thaw (room temperature) cycles

Question: And the “QC sample long-term storage stability” value [2]?
Answer: 1552 days at −20 °C

Question: What about the “QC sample bench-top stability” value [2] of the same compound?
Answer: 68.5 hours at room temp

Question: And the “Stock solution stability (spike solutions)” value [2]?
Answer: 610 days at −20 °C for ketamine/norketamine spike solutions

Question: What about the Processed sample stability [2] of the same compound?
Answer: 146.5 hours at room temperature

Question: And the “Whole Blood Stability” value [2]?
Answer: 120 minutes at room temperature and in an ice-water bath (0-4° C.)

Question: What about the Stock solution stability [2, 8] of the same compound?
Answer: 6 h

Question: What about the Stock solution stability ([2]; stock solutions at −20° C.) of the same compound?
Answer: 15100 h

Question: Which “Withdrawn: Adverse event, % of subjects” value [3] does the source give for `CN[C@]1(c2ccccc2Cl)CCCCC1=O` [Esketamine 84 mg] here?
Answer: (13.9%)

Question: What about the “Withdrawn: Adverse event, number of subjects” value [3] of the same compound?
Answer: 5

Question: What about the “Withdrawn: Lack of Efficacy, % of subjects” value [3] of the same compound?
Answer: (2.8%)

Question: What about the “Withdrawn: Lack of Efficacy, number of subjects” value [3] of the same compound?
Answer: 1

Question: What does the source list for `NC1(c2ccccc2Cl)CCCCC1=O` (stereo not shown) [Norketamine]?
Answer: QC sample freeze/thaw stability [2, 6]: 3 freeze (−20° C.)/thaw (ice-water bath) cycles; QC sample freeze/thaw stability [2, 7]: 3 freeze (−20° C.)/thaw (room temperature) cycles; QC sample long-term storage stability [2]: 1552 days at −20 °C; QC sample bench-top stability [2]: 68.5 hours at room temp; Stock solution stability (spike solutions) [2]: 610 days at −20 °C for ketamine/norketamine spike solutions; Processed sample stability [2]: 146.5 hours at room temperature; Whole Blood Stability [2]: 120 minutes at room temperature and in an ice-water bath (0-4° C.); Stock solution stability [2, 8]: 6 h; Stock solution stability ([2]; stock solutions at −20° C.): 15100 h

Question: With `NC1(c2ccccc2Cl)CCCCC1=O` (stereo not shown) [noresketamine] as the compound, how does the “Mean ratio of noresketamine to esketamine, AUClast” value ([4]; 28, 56, 84 mg) read?
Answer: 3.62 to 4.32

Question: And the “Mean ratio of noresketamine to esketamine, AUC∞” value ([4]; 28, 56, 84 mg)?
Answer: 3.80 to 4.46

Question: What about the “Mean ratio of noresketamine to esketamine, Cmax” value ([4]; 28, 56, 84 mg) of the same compound?
Answer: 1.96 to 2.55

Question: And the “Median tmax of noresketamine, range across regimens” value ([4]; healthy subjects, intranasal esketamine 28, 56, 84 mg)?
Answer: 1.25 to 1.5 h

Question: And the “AUC (AUClast and AUC∞) variability” value ([4]; noresketamine in plasma)?
Answer: 17.0% to 21.3

Question: What about the “Between-subject variability for Cmax” value ([4]; noresketamine in plasma) of the same compound?
Answer: 25.8% to 33.7

Question: And the AUClast [4, 9]?
Answer: 454 ng·h/mL

Question: What about the “AUC∞” value [4, 9] of the same compound?
Answer: 508 ng·h/mL

Question: What about the Cmax [4, 9] of the same compound?
Answer: 92.8 ng/mL

Question: What about the t1/2 [4, 9] of the same compound?
Answer: 7.74 h

Question: And the Tmax [4, 9]?
Answer: 1.25 h

Question: And the AUClast [4, 10]?
Answer: 851 ng·h/mL

Question: What about the “AUC∞” value [4, 10] of the same compound?
Answer: 924^c h*ng/mL

Question: And the Cmax [4, 10]?
Answer: 154 ng/mL

Question: And the t1/2 [4, 10]?
Answer: 7.71^c h

Question: And the Tmax [4, 10]?
Answer: 1.50 h

Question: And the AUClast [4, 11]?
Answer: 1287 ng·h/mL

Question: What about the “AUC∞” value [4, 11] of the same compound?
Answer: 1392^b h*ng/mL

Question: And the Cmax [4, 11]?
Answer: 241 ng/mL

Question: What about the t1/2 [4, 11] of the same compound?
Answer: 7.48^b h

Question: And the Tmax [4, 11]?
Answer: 1.50 h

Question: And the “Metabolite/Parent Ratio AUClast” value ([4]; esketamine 28 mg (Treatment A))?
Answer: 3.62

Question: What about the “Metabolite/Parent Ratio AUC∞” value ([4]; esketamine 28 mg (Treatment A)) of the same compound?
Answer: 3.80^b

Question: And the “Metabolite/Parent Ratio Cmax” value ([4]; esketamine 28 mg (Treatment A))?
Answer: 1.96

Question: What about the “Metabolite/Parent Ratio AUClast” value ([4]; esketamine 56 mg (Treatment B)) of the same compound?
Answer: 4.07

Question: What about the “Metabolite/Parent Ratio AUC∞” value ([4]; esketamine 56 mg (Treatment B)) of the same compound?
Answer: 4.22^b

Question: What about the “Metabolite/Parent Ratio Cmax” value ([4]; esketamine 56 mg (Treatment B)) of the same compound?
Answer: 2.28

Question: And the “Metabolite/Parent Ratio AUClast” value ([4]; esketamine 84 mg (Treatment C))?
Answer: 4.32

Question: What about the “Metabolite/Parent Ratio AUC∞” value ([4]; esketamine 84 mg (Treatment C)) of the same compound?
Answer: 4.46^d

Question: What about the “Metabolite/Parent Ratio Cmax” value ([4]; esketamine 84 mg (Treatment C)) of the same compound?
Answer: 2.55

Question: And the “Mean t1/2, range across regimens” value ([4]; noresketamine, esketamine 28, 56, 84 mg)?
Answer: 7.48 to 7.74 h

Question: For `OCCOCCN1CCN(C2=Nc3ccccc3Sc3ccccc32)CC1` [quetiapine], which “Rate of discontinuation due to adverse events” value [5] is on record?
Answer: 23.7%
